From patent US20090105261A1, “Novel substituted pyrazolo[1,5<I>A</I>]-1,3,5-Triazine derivatives and their analogues, pharmaceutical compositions containing same, use thereof as medicine and methods for preparing same” (GREENPHARMA, priority 2002, published 2009)

Legend:
[1] = target: T1, human phosphodiesterase type 2 (source: U-937 cells) (Homo sapiens, UniProt O00408); test: PDE2 inhibition, [3H]cAMP hydrolysis, scintillation; format: biochemical; conditions: substrate [3H]cAMP+cAMP 1 μM, 30 minutes at 30° C.
T1 construct: human phosphodiesterase type 2 (source: U-937 cells); endogenous in cells; host or cells: U-937 cells
Procedure: This novel family of compounds was tested as an inhibitor of human phosphodiesterase type 2 (source: U-937 cells) by following the method described by Torphy, T. J., Zhou, H. L. and Cieslinski, L. B. (J. Pharmacol. Exp. Ther., 1992, 263, 1195-1205). […] A quantitative measurement of the hydrolysis product [3H]-5′-AMP was determined by scintillation.

PDE1 (bovine) = test: PDE1 inhibition (selectivity); format: biochemical; conditions: substrate [3H]cAMP+cAMP 1 μM, 30 minutes at 30° C.
Description: (§1) cyclic nucleotide phosphodiesterases: PDE1 (bovine), PDE3 (human), PDE5 (human) and PDE6 (bovine), by following the methods described, respectively, by: (i, PDE1) Nicholson C. D., JACKMAN S. A. and WILKE R. (Brit. J. Pharmacol. 1989, 97, 889-897); (ii, PDE3 and PDE5) Weishaar, R. E., Burrows, S. D., Kobylarz, D. C., Quade, M. M. and Evans, D. B. (Biochem. Pharmacol., 1986, 35, 787-800); (iii PDE6) Ballard, A. S., Gingell, C. J., Tang, K., Turner, L. A., PRICE, M. E. (J. Urol, 1998, 159, 2164-2171). […] In the case of PDE5 and PDE 6, the substrate used is ([3H]cGMP+cGMP) at a concentration of 1 μM for PDE5 and 2 μM for PDE6. A quantitative measurement of the hydrolysis products [3H]-5′-AMP and [3H]-5′-GMP was determined by scintillation.

[2] = tested on: rat embryonic motoneuron cells; test: Apoptosis induced by elimination of BDNF in primary motoneuron cultures; format: cell-based; conditions: BDNF deprivation; concentration of 1 mM
Procedure: This test was carried out according to the protocol described by Estevez A. G. et al. (J. Neurosci. 1998, 18(3), 923-931). Briefly, when primary cultures of rat embryonic motoneuron cells are deprived of brain-derived neurotrophic factor (BDNF), an induction of neuronal nitric oxide synthase (NOS) was observed, resulting in the gradual death of the neurons by apoptosis: between 18 and 24 hours after having realized the biological preparation, more than 60% of the neurons die. In this model of induced apoptosis, the compound sodium 4-[[1-(oxo)-3-(4-oxopyrazolo[1,5-a]-1,3,5-triazin-8-yl)propyl]amino]benzoate (Ia5) protects more than 70% of the neurons at a concentration of 1 mM.

motoneurons = test: Motoneuron apoptosis induced by peroxynitrite; format: cell-based; conditions: concentration of 1 mM
Procedure: This test was carried out according to the protocol described by Cassina P. et al. (J. Neurosci. Res. 2002 67(1): 21-9). Briefly, the oxidative stress mediated by nitric oxide and its toxic metabolite, peroxynitrite, has been associated with motoneuron degeneration, in particular in amyotrophic lateral sclerosis. The astrocytes of the spinal cord respond to extracellular concentrations of peroxynitrite by adopting a phenotype which is cytotoxic for the motoneurons. In this model of apoptosis induced by peroxynitrite, the compound sodium 4-[[1-(oxo)-3-(4-oxopyrazolo[1,5-a]-1,3,5-triazin-8-yl)propyl]amino]benzoate (Ia5) protects more than 60% of the neurons at a concentration of 1 mM.

[3] = tested on: neurons cultured from fetal rat brain cortex; test: Neurite development in primary neuron cultures from fetal rat brain cortex; format: cell-based
Procedure: FIG. 1 represents the effect of the molecule Ia5 on neurons in culture. The neurons are cultured in Neurobasal medium from fetal rat brain cortex according to the procedure described in example 4 and are photographed without staining 17 days after being placed in culture. Culture A is a control culture without compound. The molecule Ia5 was added to culture B on the 8th day after the placing in culture, at a concentration of 50 μM.
Compounds according to the invention were evaluated for their neurotrophic properties. The idea is therefore to observe the behavior of a neuron cell culture in the absence and presence of such molecules. The molecule called Ia5 used during this example is a molecule having the general structure Ic1, where n=2 and m=0, in the form of a sodium salt.
The adult animals are mated and the female rats are separated the following day. After 16 days, the gestating rats undergo a cesarean and the fetuses are placed in a Petri dish 100 mm in diameter. They are transferred, under a laminar flow hood, into sterile medium. The fetuses are isolated by units and are dissected under a binocular magnifying lens in sterile medium. The cerebral cortex is isolated and placed in a tube containing Neurobasal medium without antibiotic. […] The cells are counted using a Mallassez hematometer in the presence of trypan blue in order to determine the cell viability. […]

TNFα = TNFα in supernatants of LPS-activated venous blood mononuclear cells (PBMCs), EIA; format: cell-based; conditions: PBMC, LPS 1 μg/ml, 24 hours incubation
Procedure: The compounds according to the invention were evaluated for their anti-inflammatory properties on venous blood mononuclear cells (PBMCs). More particularly, the cells were incubated for 24 hours in the presence of the molecule tested, after activation with lipopolysaccharide (LPS) (1 μg/ml) according to the protocol described by Schindler, R., Mancilla, J., Endres, S., Ghorbani, R., Clark, S. C. and Dinarello, C. A. (Blood, 1990, 75, 40-47). After incubation, the TNFα concentrations were measured in the culture supernatants by the EIA method.

PDE6 (bovine) = target: T2, PDE6 (bovine) (Bos taurus, UniProt P11541+P23439); test: PDE6 inhibition (selectivity); format: biochemical; conditions: substrate [3H]cGMP+cGMP 2 μM
T2 sequence (P11541 2-856): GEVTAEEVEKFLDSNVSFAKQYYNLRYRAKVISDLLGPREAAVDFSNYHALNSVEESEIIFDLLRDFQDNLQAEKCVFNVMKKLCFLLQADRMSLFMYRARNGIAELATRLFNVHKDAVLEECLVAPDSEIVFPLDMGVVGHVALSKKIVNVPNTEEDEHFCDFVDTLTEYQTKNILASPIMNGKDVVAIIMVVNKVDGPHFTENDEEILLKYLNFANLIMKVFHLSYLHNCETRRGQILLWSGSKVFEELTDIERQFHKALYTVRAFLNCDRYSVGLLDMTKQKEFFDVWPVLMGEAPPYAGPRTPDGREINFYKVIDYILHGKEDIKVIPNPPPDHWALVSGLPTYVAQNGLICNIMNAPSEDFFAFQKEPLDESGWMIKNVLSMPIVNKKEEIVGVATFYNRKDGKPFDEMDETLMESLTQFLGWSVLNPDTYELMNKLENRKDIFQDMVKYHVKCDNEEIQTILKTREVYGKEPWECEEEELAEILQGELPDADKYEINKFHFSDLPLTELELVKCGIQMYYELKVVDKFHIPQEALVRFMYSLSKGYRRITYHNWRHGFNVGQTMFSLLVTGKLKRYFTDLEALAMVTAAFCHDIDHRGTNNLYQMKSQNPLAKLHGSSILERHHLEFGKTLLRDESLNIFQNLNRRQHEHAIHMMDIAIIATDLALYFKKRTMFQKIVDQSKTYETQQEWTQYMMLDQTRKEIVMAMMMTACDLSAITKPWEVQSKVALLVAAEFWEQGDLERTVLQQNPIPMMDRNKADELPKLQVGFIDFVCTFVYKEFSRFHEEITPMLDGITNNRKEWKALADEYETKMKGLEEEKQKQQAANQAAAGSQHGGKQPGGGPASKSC
T2 sequence (P23439 2-850): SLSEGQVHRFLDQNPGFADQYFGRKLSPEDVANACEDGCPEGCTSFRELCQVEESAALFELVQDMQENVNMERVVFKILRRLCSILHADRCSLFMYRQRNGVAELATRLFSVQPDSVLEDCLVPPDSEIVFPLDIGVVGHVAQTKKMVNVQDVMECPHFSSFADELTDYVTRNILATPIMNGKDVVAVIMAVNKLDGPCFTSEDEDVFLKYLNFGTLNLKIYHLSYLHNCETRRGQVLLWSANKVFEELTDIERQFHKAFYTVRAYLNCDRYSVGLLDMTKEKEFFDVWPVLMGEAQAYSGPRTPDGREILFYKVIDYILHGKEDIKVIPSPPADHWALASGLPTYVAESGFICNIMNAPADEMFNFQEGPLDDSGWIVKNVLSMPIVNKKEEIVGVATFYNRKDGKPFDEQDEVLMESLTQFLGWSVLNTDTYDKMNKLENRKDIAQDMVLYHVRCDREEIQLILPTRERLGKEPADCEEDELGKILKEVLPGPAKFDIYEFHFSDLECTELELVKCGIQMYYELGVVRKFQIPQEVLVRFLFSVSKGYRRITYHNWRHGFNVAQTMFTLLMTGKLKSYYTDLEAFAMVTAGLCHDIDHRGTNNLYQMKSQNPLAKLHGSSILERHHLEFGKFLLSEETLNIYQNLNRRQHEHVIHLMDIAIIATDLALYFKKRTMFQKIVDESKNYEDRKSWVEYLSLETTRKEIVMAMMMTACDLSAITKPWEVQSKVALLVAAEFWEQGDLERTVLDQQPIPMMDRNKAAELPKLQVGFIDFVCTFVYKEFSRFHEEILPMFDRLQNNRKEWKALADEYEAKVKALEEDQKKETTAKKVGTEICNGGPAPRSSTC
T2 sequence (P04972 1-87 partner): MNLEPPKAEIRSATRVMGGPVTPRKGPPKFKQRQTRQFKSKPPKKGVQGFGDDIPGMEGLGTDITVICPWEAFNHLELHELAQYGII
Description: as §1

T1 sequence (O00408 whole entry): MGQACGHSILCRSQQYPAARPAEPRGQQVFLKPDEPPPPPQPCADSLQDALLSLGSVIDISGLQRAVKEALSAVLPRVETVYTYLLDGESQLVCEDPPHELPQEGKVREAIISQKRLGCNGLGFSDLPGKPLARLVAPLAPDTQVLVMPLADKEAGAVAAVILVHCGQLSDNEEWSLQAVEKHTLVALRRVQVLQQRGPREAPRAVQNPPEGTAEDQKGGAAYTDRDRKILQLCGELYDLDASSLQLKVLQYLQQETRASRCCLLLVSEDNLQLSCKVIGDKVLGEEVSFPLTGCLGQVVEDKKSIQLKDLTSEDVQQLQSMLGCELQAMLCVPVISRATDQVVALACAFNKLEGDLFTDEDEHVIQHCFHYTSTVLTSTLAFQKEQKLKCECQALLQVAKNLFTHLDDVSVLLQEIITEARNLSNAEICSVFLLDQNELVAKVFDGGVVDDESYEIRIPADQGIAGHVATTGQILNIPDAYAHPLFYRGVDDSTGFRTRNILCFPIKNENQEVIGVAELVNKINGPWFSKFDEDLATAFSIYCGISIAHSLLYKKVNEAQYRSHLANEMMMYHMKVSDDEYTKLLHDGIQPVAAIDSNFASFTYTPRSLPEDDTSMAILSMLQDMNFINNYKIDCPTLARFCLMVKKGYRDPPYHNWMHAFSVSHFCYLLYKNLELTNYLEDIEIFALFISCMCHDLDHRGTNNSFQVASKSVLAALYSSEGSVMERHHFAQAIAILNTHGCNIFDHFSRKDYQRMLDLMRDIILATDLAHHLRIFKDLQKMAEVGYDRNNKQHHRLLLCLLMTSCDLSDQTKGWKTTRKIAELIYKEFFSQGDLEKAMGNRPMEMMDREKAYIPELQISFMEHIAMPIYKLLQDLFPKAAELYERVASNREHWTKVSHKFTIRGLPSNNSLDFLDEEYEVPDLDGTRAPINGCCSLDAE

For `CCCCCC[C@@H]([C@@H](C)O)n1cnc2c(N)ncnc21` (racemic) [EHNA], the IC50 [1] was 2100 nM.
`COCc1nc2c([nH]1)c(=O)n(C)c(=O)n2CC(C)C` [8-methoxy-IBMX] showed an IC50 (PDE1 (bovine)) of 2900 nM.
For `O=C(CCc1cnn2c(=O)[nH]cnc12)Nc1ccc(C(=O)[O-])cc1.[Na+]` [Ia5, Sodium 4-[[1-(oxo)-3-(4-oxopyrazolo[1,5-a]-1,3,5-triazin-8-yl)propyl]amino]benzoate], the neurons protected [2] was “more than 70%”, the neurons protected (motoneurons) was “more than 60%” and the “neurite morphology in culture B compared with control A (FIG. 1)” value ([3]; 50 μM added on the 8th day, photographed 17 days after being placed in culture) was “thickening and an elongation of the neurites”. The “neurite development compared with control cells” value ([3]; primary fetal rat cortex neurons, test molecule at 0.1, 1 and 10 μmol/l) was “greater neurite development than in the cells acting as control”.
Work on `CCCc1nc(N(C)c2ccccc2)n2ncc(C(O)c3ccoc3)c2n1` (stereo not shown) [Ib15, 8-[(3-Furyl)(hydroxy)methyl]-4-(N-methyl-N-phenylamino)-2-n-propylpyrazolo[1,5-a]-1,3,5-triazine] yielded a melting point of 142 to 144 °C.
For `CCCc1nc(N(C)c2ccccc2)n2ncc(C(O)c3cccs3)c2n1` (stereo not shown) [Ib18, 8-[(Hydroxy)(2-thienyl)methyl]-4-(N-methyl-N-phenylamino)-2-n-propylpyrazolo[1,5-a]-1,3,5-triazine], the melting point was 150 to 152 °C.
`C[C@@H]1C[C@H]2[C@@H]3CCC4=CC(=O)C=C[C@]4(C)[C@@]3(F)[C@@H](O)C[C@]2(C)[C@@]1(O)C(=O)CO` [dexamethasone] showed an IC50 (TNFα) of 4600 nM.
Molecule `CCCOc1ccccc1-c1nc2nn[nH]c2c(=O)[nH]1` [zaprinast] has an IC50 (PDE6 (bovine)) of 380 nM.
